Laboratory results from PubChem BioAssay AID1963829 (Molecular Pharmacology Branch, DTP, NCI, 2024).

test system: 935938-334-R-J1-PDC complex spheroid viability; assay: Anticancer human tumor 935938-334-R-J1-PDC patient-derived small intestine adenocarcinoma cell line growth inhibition [POLQ]; conditions: second compound 0.0316 µM; first compound 1 µM; active compounds read low
Experimental: Multicellular complex tumor spheroid response to Polymerase (POL) inhibitors (novobiocin, ART-558, RP6685) in combination with a variety of drugs and investigational agents in selected tumor cell lines
The POL inhibitors (novobiocin, ART-558, and RP6685) were evaluated both individually and in combination with standard of care and investigational anticancer small molecules within a complex spheroid model of solid tumors. . Complex spheroids include a stromal component modeled by human endothelial cells (HUVEC) and fibroblasts modeled by human mesenchymal stem cells (MSCs). The concentration ranges selected for each drug and investigational agent were based upon clinically achievable concentrations if the clinical Cmax of the agent was known.
Compounds. The drugs and investigational agents: novobiocin (NSC847541), ART-558 (NSC835418), RP-6685 (NSC848927), peposertib (NSC802822), ceralasertib (NSC780249), elimusertib (NSC800525), camonsertib (NSC841442), AZD-1390 (NSC803789), olaparib (NSC753686), talazoparib (NSC767125), rucaparib (NSC756644), sotorasib (NSC818433), MRTX-1133 (NSC836407), SN-38 (NSC673596), topotecan (NSC609699), epotoside (NSC141540), doxorubicin (NSC123127), gemcitabine (NSC613327), 5-fluorouracil (NSC19893), paclitaxel (NSC125973), vemurafenib (NSC761431), MSA-2 (NSC828583), SN-011 (NSC837082), adavosertib (NSC754352), prexasertib (NSC758257), carboplatin (NSC241240) and oxaliplatin (NSC266046), were obtained from the National Cancer Institute (NCI) Developmental Therapeutics Program Chemical Repository (21). The FDA-approved anticancer drug set is available from the Developmental Therapeutics Program at https://dtp.cancer.gov/organization/dscb/obtaining/. […] The stock solutions were prepared in dimethyl sulfoxide (DMSO, Sigma-Aldrich, St. Louis, MO, cat. D2650), except for the platinum compounds which were prepared in saline (Quality Biological, Gaithersburg, MD, cat. 114-055-101), at 800-fold the tested concentration and stored at -70 degrees C prior to their use. All drugs and investigational agents were tested over a range starting from a high concentration at or near the clinical Cmax and decreasing in half-log increments. If the clinical Cmax for an agent had not been determined, the highest concentration tested was 10 microM, except for SN-38, which was tested at a high concentration of 1 microM.
Cell Culture. All cells were maintained in an incubator at 37 degrees C and 5% CO2 with 95% humidity. The PDC lines were cultured according to standard operating procedures established by the NCI PDMR (https://pdmr.cancer.gov). Table 3 of the manuscript, lists the cell lines along with the number of the three cell types plated to form the mct-spheroids and media for tumor cell growth. After thawing, all PDC lines, except 997537-175-T-J1-PDC and 415267-285-R-J2-PDC, were cultured in Matrigel-coated flasks prepared with a working solution of 1X Ham's F-12 nutrient mix, without supplementation (Thermo Fisher Scientific, cat. 11765054), 100 U/mL penicillin-streptomycin (Thermo Fisher Scientific, cat. 15140122), and 2.5% Matrigel (Corning Inc., Corning, NY, cat. 354248) for the first three passages. The two PDC lines 997537-175-T-J1-PDC and 415267-285-R-J2-PDC were cultured on uncoated flasks. The 857933-349-R-J2-PDC line was cultured in 6C/Colon 1B media containing advanced DMEM/F-12 (Thermo Fisher Scientific, cat. 12634028), 10 mM HEPES (Thermo Fisher Scientific, cat. 15630080), 1X GlutaMAX supplement (Thermo Fisher Scientific, cat. 35050061), 0.1 mg/mL primocin (InvivoGen, San Diego, CA, cat. ant-pm-2), 10% defined fetal bovine serum, heat inactivated (HyClone Laboratories Inc., Logan, UT, cat. SH30070.03HI), 50% L-WRN conditioned media (ATCC, cat. CRL-3276), 1.25 mM N-Acetyl-L-cysteine (Sigma-Aldrich, cat. A9165), 10 mM nicotinamide (Sigma-Aldrich, cat. N0636), 1X B-27 supplement (Thermo Fisher Scientific, cat. 17504044), 1X N-2 supplement (Thermo Fisher Scientific, cat. […]
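Note: spheroids exposed to drugs for seven days before viability read; 100% = DMSO vehicle control wells.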

First: COc1cccc2c1C(=O)c1c(O)c3c(c(O)c1C2=O)CC(O)(C(=O)CO)CC3OC1CC(N)C(O)C(C)O1 (stereo not given) + Nc1ccc(C#CCN(C(=O)Cc2ncc(C(F)(F)F)cc2C(F)(F)F)c2ccc(F)cc2)nn1
Second: O=c1[nH]cc(F)c(=O)[nH]1 + Nc1ccc(C#CCN(C(=O)Cc2ncc(C(F)(F)F)cc2C(F)(F)F)c2ccc(F)cc2)nn1
The viability, T/C of the first is lower: 22.2% for the first, 68.5% for the second.

same assay, conditions: second compound 0.0316 µM; first compound 3.16 µM; active compounds read low

Compared with CC1COCCN1c1cc(-c2ccnn2C)c2ccnc(-c3ccn[nH]3)c2n1 (stereo not given) + Cc1cccc(N(C)C(=O)C2C(O)CCN2c2nc(C)cc(C(F)(F)F)c2C#N)c1, COc1cccc2c1C(=O)c1c(O)c3c(c(O)c1C2=O)CC(O)(C(=O)CO)CC3OC1CC(N)C(O)C(C)O1 (stereo not given) + Nc1ccc(C#CCN(C(=O)Cc2ncc(C(F)(F)F)cc2C(F)(F)F)c2ccc(F)cc2)nn1 is lower in viability, T/C: 20.1% for the first, 8.04% for the second.

Compound O=c1[nH]cc(F)c(=O)[nH]1 + Nc1ccc(C#CCN(C(=O)Cc2ncc(C(F)(F)F)cc2C(F)(F)F)c2ccc(F)cc2)nn1 has a viability, T/C of 62.7%.

same assay, conditions: second compound 0.0316 µM; first compound 10 µM; active compounds read low

Going from CC1COCCN1c1cc(-c2ccnn2C)c2ccnc(-c3ccn[nH]3)c2n1 (stereo not given) + Cc1cccc(N(C)C(=O)C2C(O)CCN2c2nc(C)cc(C(F)(F)F)c2C#N)c1 to COc1cccc2c1C(=O)c1c(O)c3c(c(O)c1C2=O)CC(O)(C(=O)CO)CC3OC1CC(N)C(O)C(C)O1 (stereo not given) + Nc1ccc(C#CCN(C(=O)Cc2ncc(C(F)(F)F)cc2C(F)(F)F)c2ccc(F)cc2)nn1, the viability, T/C falls from 22% to 3.61%.

For O=c1[nH]cc(F)c(=O)[nH]1 + Nc1ccc(C#CCN(C(=O)Cc2ncc(C(F)(F)F)cc2C(F)(F)F)c2ccc(F)cc2)nn1, the viability, T/C was 48.8%.

same assay, conditions: second compound 0.1 µM; first compound 0.0316 µM; active compounds read low

Going from CC1COCCN1c1cc(-c2ccnn2C)c2ccnc(-c3ccn[nH]3)c2n1 (stereo not given) + Cc1cccc(N(C)C(=O)C2C(O)CCN2c2nc(C)cc(C(F)(F)F)c2C#N)c1 to COc1cccc2c1C(=O)c1c(O)c3c(c(O)c1C2=O)CC(O)(C(=O)CO)CC3OC1CC(N)C(O)C(C)O1 (stereo not given) + Nc1ccc(C#CCN(C(=O)Cc2ncc(C(F)(F)F)cc2C(F)(F)F)c2ccc(F)cc2)nn1, the viability, T/C falls from 105% to 69.9%.

In the case of O=c1[nH]cc(F)c(=O)[nH]1 + Nc1ccc(C#CCN(C(=O)Cc2ncc(C(F)(F)F)cc2C(F)(F)F)c2ccc(F)cc2)nn1, the viability, T/C is reported as 101%.

same assay, conditions: second compound 0.1 µM; first compound 0.1 µM; active compounds read low

First: CC1COCCN1c1cc(-c2ccnn2C)c2ccnc(-c3ccn[nH]3)c2n1 (stereo not given) + Cc1cccc(N(C)C(=O)C2C(O)CCN2c2nc(C)cc(C(F)(F)F)c2C#N)c1
Second: COc1cccc2c1C(=O)c1c(O)c3c(c(O)c1C2=O)CC(O)(C(=O)CO)CC3OC1CC(N)C(O)C(C)O1 (stereo not given) + Nc1ccc(C#CCN(C(=O)Cc2ncc(C(F)(F)F)cc2C(F)(F)F)c2ccc(F)cc2)nn1
The viability, T/C of the first is higher: 48.6% for the first, 45.5% for the second.

O=c1[nH]cc(F)c(=O)[nH]1 + Nc1ccc(C#CCN(C(=O)Cc2ncc(C(F)(F)F)cc2C(F)(F)F)c2ccc(F)cc2)nn1 gave a viability, T/C of 92.9%.

same assay, conditions: second compound 0.1 µM; first compound 0.316 µM; active compounds read low

Compared with CC1COCCN1c1cc(-c2ccnn2C)c2ccnc(-c3ccn[nH]3)c2n1 (stereo not given) + Cc1cccc(N(C)C(=O)C2C(O)CCN2c2nc(C)cc(C(F)(F)F)c2C#N)c1, COc1cccc2c1C(=O)c1c(O)c3c(c(O)c1C2=O)CC(O)(C(=O)CO)CC3OC1CC(N)C(O)C(C)O1 (stereo not given) + Nc1ccc(C#CCN(C(=O)Cc2ncc(C(F)(F)F)cc2C(F)(F)F)c2ccc(F)cc2)nn1 is higher in viability, T/C: 29.4% for the first, 31.3% for the second.

Compound O=c1[nH]cc(F)c(=O)[nH]1 + Nc1ccc(C#CCN(C(=O)Cc2ncc(C(F)(F)F)cc2C(F)(F)F)c2ccc(F)cc2)nn1 has a viability, T/C of 82.1%.

same assay, conditions: second compound 0.1 µM; first compound 1 µM; active compounds read low

Going from CC1COCCN1c1cc(-c2ccnn2C)c2ccnc(-c3ccn[nH]3)c2n1 (stereo not given) + Cc1cccc(N(C)C(=O)C2C(O)CCN2c2nc(C)cc(C(F)(F)F)c2C#N)c1 to COc1cccc2c1C(=O)c1c(O)c3c(c(O)c1C2=O)CC(O)(C(=O)CO)CC3OC1CC(N)C(O)C(C)O1 (stereo not given) + Nc1ccc(C#CCN(C(=O)Cc2ncc(C(F)(F)F)cc2C(F)(F)F)c2ccc(F)cc2)nn1, the viability, T/C falls from 20.7% to 19.6%.

Compound O=c1[nH]cc(F)c(=O)[nH]1 + Nc1ccc(C#CCN(C(=O)Cc2ncc(C(F)(F)F)cc2C(F)(F)F)c2ccc(F)cc2)nn1 has a viability, T/C of 66.3%.
